Assay results published in paper PMC7601999 (Journal of the American Chemical Society, 2020).
Residues, ends and D or L forms follow the SMILES beside them.

Key:
NOD2 LRR [1] = molecular target: T1, NOD2 LRR (Homo sapiens, UniProt Q9HC29); details: read-out: Surface KD, NOD2, SPR, previously reported surface KD; cited from earlier work
NLRP1 LRR = molecular target: T2, NLRP1 LRR (Homo sapiens, UniProt Q9C000); assay: SPR assay, NLRP1 LRR binding to surface-tethered PG derivatives; details: for Decrease in affinity compared to intact MDP (1): NLRP1 LRR, SPR surface KD; for Binding to non-PG derived compound tethered to SPR surface: NLRP1, specificity control (Figure S8)
T2 sequence (Q9C000 791-990): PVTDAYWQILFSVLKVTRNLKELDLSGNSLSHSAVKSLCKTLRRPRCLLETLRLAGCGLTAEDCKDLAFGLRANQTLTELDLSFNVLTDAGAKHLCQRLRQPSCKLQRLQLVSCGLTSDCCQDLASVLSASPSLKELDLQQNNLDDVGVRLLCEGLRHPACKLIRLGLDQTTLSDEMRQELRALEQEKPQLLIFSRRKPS

[2] = test system: NOD2 R877 to alanine mutant; details: R877A versus wild-type NOD2; cited from earlier work
NOD2 LRR [3] = molecular target: T1, NOD2 LRR; assay: SPR assay, NOD2 LRR binding to surface-tethered PG derivatives; details: specificity control (Figure S8)

T1 sequence (Q9HC29 765-1040 limits assumed): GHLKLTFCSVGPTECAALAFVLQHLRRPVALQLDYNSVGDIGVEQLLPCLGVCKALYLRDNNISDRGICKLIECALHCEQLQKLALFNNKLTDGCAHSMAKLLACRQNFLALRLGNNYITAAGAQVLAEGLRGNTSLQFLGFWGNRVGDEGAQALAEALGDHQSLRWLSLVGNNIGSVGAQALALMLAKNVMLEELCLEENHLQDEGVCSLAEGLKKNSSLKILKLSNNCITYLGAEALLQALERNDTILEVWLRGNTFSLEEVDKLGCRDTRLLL

Molecule: 1-amino MDP [Compound 6]
- Kd (NOD2 LRR [1]): 0.7 ± 0.1 µM

Molecule: 6 -amino GlcNAc [Compound 2]
- Decrease in affinity compared to intact MDP (1) (NLRP1 LRR): 2 fold
- Kd (NOD2 LRR [1]): 0.354 ± 0.04 µM

Molecule: 6-amino MDP [Compound 1]
- Kd (NOD2 LRR [1]): 0.213 ± 0.024 µM

Molecule: CC(=O)N[C@H]1C(O)O[C@H](CO)[C@@H](O)[C@@H]1O[C@H](C)C(=O)N[C@@H](C)C(=O)N[C@H](CCC(=O)O)C(N)=O (mixture of isomers) [MDP, muramyl dipeptide]
- Decrease in affinity of NOD2 for MDP on mutation of R877 to alanine [2]: 4 fold

Molecule: C[C@H](N)C(=O)N[C@H](CCC(=O)O)C(N)=O [Compound 3, L-ala D-iso dipeptide] (HELM PEPTIDE1{A.[dE].[am]}$$$$V2.0)
- Decrease in affinity compared to intact MDP (1) (NLRP1 LRR): 2 fold
- Kd (NOD2 LRR [1]): 0.428 ± 0.049 µM

Molecule: C[C@H](N)C(=O)N[C@@H](C)C(=O)N[C@@H](C)C(=O)O [L-alanine tripeptide, reference compound]
- Binding to non-PG derived compound tethered to SPR surface (NLRP1 LRR): did not exhibit binding
- Binding to non-PG derived compound tethered to SPR surface (NOD2 LRR [3]): did not exhibit binding

Molecule: N[C@H]1C(O)O[C@H](CO)[C@H](O)[C@@H]1O (some centres unmarked) [galactosamine, reference compound]
- Binding to non-PG derived compound tethered to SPR surface (NLRP1 LRR): did not exhibit binding
- Binding to non-PG derived compound tethered to SPR surface (NOD2 LRR [3]): did not exhibit binding
